The NIST ThermoML archive (doi:10.1016/j.jct.2015.01.006)

Assay: mn = molality of the nth substance listed, in mol/kg
Conditions: 298.15 K, 100 kPa, Liquid, Vibrating tube method

[O]=[Re](=[O])(=[O])[OH] [perrhenic acid] + O
Conditions | mass density [kg/m3]
m1 = 0.15 | 1027.57
m1 = 0.31 | 1057.54
m1 = 0.46 | 1087.27
m1 = 0.6 | 1115.28
m1 = 0.75 | 1143.92
m1 = 0.89 | 1169.78
m1 = 1.03 | 1195.77
m1 = 1.17 | 1220.36
m1 = 1.31 | 1245.59
m1 = 1.45 | 1270.29
m1 = 1.58 | 1292.96
m1 = 1.71 | 1316
m1 = 1.93 | 1361.24
m1 = 2.38 | 1429.34
m1 = 3.33 | 1584.96
m1 = 3.78 | 1649.71
m1 = 4.08 | 1693.28
m1 = 4.29 | 1716.22
m1 = 4.63 | 1782.41
m1 = 4.72 | 1791.73
m1 = 4.96 | 1821.44
m1 = 5.23 | 1856.73
m1 = 5.45 | 1877.16
m1 = 5.66 | 1910.98
m1 = 5.92 | 1933.4
m1 = 6.06 | 1957.44
m1 = 6.26 | 1978.54
m1 = 6.5 | 2025.89
m1 = 6.8 | 2054.75
m1 = 7.05 | 2069.04
m1 = 7.13 | 2085.82
m1 = 7.42 | 2107.74
m1 = 7.44 | 2117.26
m1 = 7.65 | 2134.62
m1 = 7.86 | 2153.7
m1 = 7.95 | 2166.62
m1 = 8.2 | 2192.45
m1 = 11.82 | 2516.75
